Measured values as given in patent US6706663B2, “Herbicidal 3-heterocyclic substituted benzisothiazole and benzisoxazole compounds” (Wyeth, priority 2000, dated 2004).

What was measured:
[1] = test system: ABUTH (Abutilon theophrasti); test: Postemergence herbicidal evaluation; format: in vivo, Medic.; conditions: postemergence
Method in brief: (§1)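 Seedlings grown for about two weeks were sprayed postemergence and then kept under standard greenhouse care. Injury was rated visually 4–5 weeks after treatment on a 0–9 scale against untreated controls, and ratings from repeat tests were averaged.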

GALAP (Galium aparine) = test: Postemergence herbicidal evaluation; format: in vivo; conditions: postemergence
Method in brief: as §1

[2] = test system: IPOHE (Ipomoea hederacea); test: Postemergence herbicidal evaluation; format: in vivo, (L.) Jacq.; conditions: postemergence
Method in brief: as §1

SETVI (Setaria viridis) [3] = test: Postemergence herbicidal evaluation; format: in vivo, (L.) Beau; conditions: postemergence
Method in brief: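 First, seedlings are raised in flats for about two weeks. Next, compound dispersed in 50/50 acetone/water with 0.5% TWEEN 20 is sprayed at 40 psi to deliver about 0.0040–1.000 kg/ha. Plants are then maintained in the greenhouse and rated 0-9 after four to five weeks.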

[4] = test system: GLXMAW (Soybean, Williams); test: Postemergence herbicidal evaluation; format: in vivo, Glycine max, (L.) Merr. cv Williams; conditions: postemergence
Method in brief: as §1

[5] = test system: TRZAWR (Wheat, Winter, cv Riband); test: Postemergence herbicidal evaluation; format: in vivo, Triticum aestivum; conditions: postemergence
Method in brief: as §1

[6] = test system: ABUTH (Abutilon theophrasti); test: Preemergence herbicidal evaluation; format: in vivo, Medic.; conditions: rated 4-5 weeks after treatment
[7] = test system: AMBEL (Ambrosia artemisifolia); test: Preemergence herbicidal evaluation; format: in vivo, L.; conditions: rated 4-5 weeks after treatment
Method in brief: (§2)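 Greenhouse preemergence test: freshly planted cups were sprayed once with an aqueous acetone solution of compound. Injury was judged visually on a 0–9 scale relative to a control, four to five weeks later.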

[8] = test system: CASOB (Cassia obtusifolia); test: Preemergence herbicidal evaluation; format: in vivo, L.; conditions: rated 4-5 weeks after treatment
Method in brief: as §2

[9] = test system: CHEAL (Chenopodium album); test: Preemergence herbicidal evaluation; format: in vivo, L.; conditions: rated 4-5 weeks after treatment
Method in brief: as §2

[10] = test system: ECHCG (Echinochloa crus-galli); test: Preemergence herbicidal evaluation; format: in vivo, (L.) Beau; conditions: rated 4-5 weeks after treatment
Method in brief: as §2

SETVI (Setaria viridis) [11] = test: Preemergence herbicidal evaluation; format: in vivo, (L.) Beau; conditions: rated 4-5 weeks after treatment
Method in brief: as §2

ZEAMX (Corn, Field) = test: Preemergence herbicidal evaluation; format: in vivo, Zea mays, L.; conditions: rated 4-5 weeks after treatment
[12] = test system: CYPSE (Cyperus serotinus); test: Flooded paddy, preemergence weed control; format: in vivo, Rottb.; conditions: rated 3-4 weeks after treatment, 0-9 rating scale
Method in brief: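 Seeds or propagules were planted 0.5 cm deep in silt loam and flooded to 1.5–3 cm. Compounds in 50/50 v/v aqueous/acetone were pipetted into the flood water at about 0.0080 to 0.1250 kg/ha. After 3–4 weeks in the greenhouse, effect was rated visually on a 0–9 scale versus untreated control.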

[13] = test system: MOOVA (Monochoria vaginalis); test: Flooded paddy, preemergence weed control; format: in vivo, Presl.; conditions: rated 3-4 weeks after treatment, 0-9 rating scale
Method in brief: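 Silt loam, sowing depth ≤0.5 cm; permanent flood 1.5–3 cm above soil; greenhouse culture after treatment. Readout: 0-9 visual scale (stand, vigor, malformation, size, chlorosis, appearance) vs control.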

ORYSAT (Rice, Tebonnet) = test: Flooded paddy, post-transplant rice tolerance; format: in vivo, Oryza sativa, (L.) Tebonnet; conditions: flooded paddy, post-transplant rice, rated 3-4 weeks after treatment, 0-9 rating scale
Method in brief: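 Two ten-day-old Tebonnet rice seedlings transplanted into silt loam, then flooded with water held at 1.5–3 cm above soil; herbicide applied post-transplant. Plants kept in greenhouse and rated visually 0–9 versus untreated control for stand, vigor, malformation, size and chlorosis.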

C[C@@H]1C[C@H](C)OC(c2nsc3ccc(-n4c(=O)cc(C(F)(F)F)n(C)c4=O)cc23)O1 (stereo partly drawn) [Compound 51, 3-[3-[(4R,6S)-4,6-dimethyl-m-dioxan-2-yl]-1,2-benzisothiazol-5-yl]-1-methyl-6-(trifluoromethyl)uracil]
ABUTH herbicidal rating ([1]; rate 0.0320 kg/ha): 9.0 | ABUTH herbicidal rating ([1]; rate 0.0620 kg/ha): 9.0 | GALAP herbicidal rating (GALAP (Galium aparine); rate 0.0320 kg/ha): 2.0 | GALAP herbicidal rating (GALAP (Galium aparine); rate 0.0620 kg/ha): 5.0 | IPOHE herbicidal rating ([2]; rate 0.0320 kg/ha): 9.0 | IPOHE herbicidal rating ([2]; rate 0.0620 kg/ha): 9.0 | SETVI herbicidal rating (SETVI (Setaria viridis) [3]; rate 0.0320 kg/ha): 3.0 | SETVI herbicidal rating (SETVI (Setaria viridis) [3]; rate 0.0620 kg/ha): 3.0 | GLXMAW herbicidal rating ([4]; rate 0.0320 kg/ha): 5.0 | GLXMAW herbicidal rating ([4]; rate 0.0620 kg/ha): 7.5 | TRZAWR herbicidal rating ([5]; rate 0.0320 kg/ha): 3.5 | TRZAWR herbicidal rating ([5]; rate 0.0620 kg/ha): 4.0 | Preemergence herbicidal rating ABUTH ([6]; Rate 0.0620 kg/ha): 9.0 | Preemergence herbicidal rating ABUTH ([6]; Rate 0.1250 kg/ha): 9.0 | Preemergence herbicidal rating ABUTH ([6]; Rate 0.2500 kg/ha): 9.0 | Preemergence herbicidal rating AMBEL ([7]; Rate 0.0620 kg/ha): 9.0 | Preemergence herbicidal rating AMBEL ([7]; Rate 0.1250 kg/ha): 9.0 | Preemergence herbicidal rating AMBEL ([7]; Rate 0.2500 kg/ha): 9.0 | Preemergence herbicidal rating CASOB ([8]; Rate 0.0620 kg/ha): 9.0 | Preemergence herbicidal rating CASOB ([8]; Rate 0.1250 kg/ha): 9.0 | Preemergence herbicidal rating CASOB ([8]; Rate 0.2500 kg/ha): 9.0 | Preemergence herbicidal rating CHEAL ([9]; Rate 0.0620 kg/ha): 9.0 | Preemergence herbicidal rating CHEAL ([9]; Rate 0.1250 kg/ha): 9.0 | Preemergence herbicidal rating CHEAL ([9]; Rate 0.2500 kg/ha): 9.0 | Preemergence herbicidal rating ECHCG ([10]; Rate 0.0620 kg/ha): 9.0 | Preemergence herbicidal rating ECHCG ([10]; Rate 0.1250 kg/ha): 9.0 | Preemergence herbicidal rating ECHCG ([10]; Rate 0.2500 kg/ha): 9.0 | Preemergence herbicidal rating SETVI (SETVI (Setaria viridis) [11]; Rate 0.0620 kg/ha): 9.0 | Preemergence herbicidal rating SETVI (SETVI (Setaria viridis) [11]; Rate 0.1250 kg/ha): 9.0 | Preemergence herbicidal rating SETVI (SETVI (Setaria viridis) [11]; Rate 0.2500 kg/ha): 9.0 | Preemergence herbicidal rating ZEAMX (ZEAMX (Corn, Field); Rate 0.0620 kg/ha): 8.0 | Preemergence herbicidal rating ZEAMX (ZEAMX (Corn, Field); Rate 0.1250 kg/ha): 8.5 | Preemergence herbicidal rating ZEAMX (ZEAMX (Corn, Field); Rate 0.2500 kg/ha): 9.0 | herbicidal rating, CYPSE ([12]; rate 0.0320 kg/ha): 9.0 | herbicidal rating, CYPSE ([12]; rate 0.1250 kg/ha): 9.0 | herbicidal rating, MOOVA ([13]; rate 0.0320 kg/ha): 9.0 | herbicidal rating, MOOVA ([13]; rate 0.1250 kg/ha): 9.0 | herbicidal rating, ORYSAT (rice tolerance) (ORYSAT (Rice, Tebonnet); rate 0.0080 kg/ha): 7.0 | herbicidal rating, ORYSAT (rice tolerance) (ORYSAT (Rice, Tebonnet); rate 0.0320 kg/ha): 9.0 | herbicidal rating, ORYSAT (rice tolerance) (ORYSAT (Rice, Tebonnet); rate 0.1250 kg/ha): 9.0

Cn1c(C(F)(F)F)cc(=O)n(-c2ccc3snc(-c4sccc4Cl)c3c2)c1=O [Compound 52, 3-[3-(3-chloro-2-thienyl)-1,2-benzisothiazol-5-yl]-1-methyl-6-(trifluoromethyl)uracil]
ABUTH herbicidal rating ([1]; rate 0.0320 kg/ha): 9.0 | ABUTH herbicidal rating ([1]; rate 0.0620 kg/ha): 9.0 | ABUTH herbicidal rating ([1]; rate 0.1250 kg/ha): 9.0 | GALAP herbicidal rating (GALAP (Galium aparine); rate 0.0320 kg/ha): 5.0 | GALAP herbicidal rating (GALAP (Galium aparine); rate 0.0620 kg/ha): 3.0 | GALAP herbicidal rating (GALAP (Galium aparine); rate 0.1250 kg/ha): 7.0 | IPOHE herbicidal rating ([2]; rate 0.0320 kg/ha): 9.0 | IPOHE herbicidal rating ([2]; rate 0.0620 kg/ha): 9.0 | IPOHE herbicidal rating ([2]; rate 0.1250 kg/ha): 9.0 | SETVI herbicidal rating (SETVI (Setaria viridis) [3]; rate 0.0320 kg/ha): 9.0 | SETVI herbicidal rating (SETVI (Setaria viridis) [3]; rate 0.0620 kg/ha): 9.0 | SETVI herbicidal rating (SETVI (Setaria viridis) [3]; rate 0.1250 kg/ha): 9.0 | GLXMAW herbicidal rating ([4]; rate 0.0320 kg/ha): 7.5 | GLXMAW herbicidal rating ([4]; rate 0.0620 kg/ha): 7.0 | GLXMAW herbicidal rating ([4]; rate 0.1250 kg/ha): 8.5 | TRZAWR herbicidal rating ([5]; rate 0.0320 kg/ha): 4.0 | TRZAWR herbicidal rating ([5]; rate 0.0620 kg/ha): 4.0 | TRZAWR herbicidal rating ([5]; rate 0.1250 kg/ha): 5.0 | Preemergence herbicidal rating ABUTH ([6]; Rate 0.0620 kg/ha): 9.0 | Preemergence herbicidal rating ABUTH ([6]; Rate 0.1250 kg/ha): 8.5 | Preemergence herbicidal rating ABUTH ([6]; Rate 0.2500 kg/ha): 9.0 | Preemergence herbicidal rating AMBEL ([7]; Rate 0.0620 kg/ha): 3.5 | Preemergence herbicidal rating AMBEL ([7]; Rate 0.1250 kg/ha): 8.5 | Preemergence herbicidal rating AMBEL ([7]; Rate 0.2500 kg/ha): 9.0 | Preemergence herbicidal rating CASOB ([8]; Rate 0.0620 kg/ha): 1.0 | Preemergence herbicidal rating CASOB ([8]; Rate 0.1250 kg/ha): 1.0 | Preemergence herbicidal rating CASOB ([8]; Rate 0.2500 kg/ha): 4.0 | Preemergence herbicidal rating CHEAL ([9]; Rate 0.0620 kg/ha): 9.0 | Preemergence herbicidal rating CHEAL ([9]; Rate 0.1250 kg/ha): 9.0 | Preemergence herbicidal rating CHEAL ([9]; Rate 0.2500 kg/ha): 9.0 | Preemergence herbicidal rating ECHCG ([10]; Rate 0.0620 kg/ha): 7.5 | Preemergence herbicidal rating ECHCG ([10]; Rate 0.1250 kg/ha): 8.5 | Preemergence herbicidal rating ECHCG ([10]; Rate 0.2500 kg/ha): 9.0 | Preemergence herbicidal rating SETVI (SETVI (Setaria viridis) [11]; Rate 0.0620 kg/ha): 9.0 | Preemergence herbicidal rating SETVI (SETVI (Setaria viridis) [11]; Rate 0.1250 kg/ha): 9.0 | Preemergence herbicidal rating SETVI (SETVI (Setaria viridis) [11]; Rate 0.2500 kg/ha): 9.0 | Preemergence herbicidal rating ZEAMX (ZEAMX (Corn, Field); Rate 0.0620 kg/ha): 1.5 | Preemergence herbicidal rating ZEAMX (ZEAMX (Corn, Field); Rate 0.1250 kg/ha): 3.5 | Preemergence herbicidal rating ZEAMX (ZEAMX (Corn, Field); Rate 0.2500 kg/ha): 7.0 | herbicidal rating, CYPSE ([12]; rate 0.0320 kg/ha): 9.0 | herbicidal rating, CYPSE ([12]; rate 0.1250 kg/ha): 9.0 | herbicidal rating, MOOVA ([13]; rate 0.0080 kg/ha): 9.0 | herbicidal rating, MOOVA ([13]; rate 0.0320 kg/ha): 9.0 | herbicidal rating, MOOVA ([13]; rate 0.1250 kg/ha): 9.0 | herbicidal rating, ORYSAT (rice tolerance) (ORYSAT (Rice, Tebonnet); rate 0.0080 kg/ha): 1.0 | herbicidal rating, ORYSAT (rice tolerance) (ORYSAT (Rice, Tebonnet); rate 0.0320 kg/ha): 3.7 | herbicidal rating, ORYSAT (rice tolerance) (ORYSAT (Rice, Tebonnet); rate 0.1250 kg/ha): 5.7
